Holding throughout (assay type): biochemical
The target in data set [1] is T1, plasmin-α2-macroglobulin complex (Homo sapiens, UniProt P00747).
T1 construct: thrombin and plasmin can be reacted with the plasma-derived protein α2-macroglobulin; made in house
Kind of data set: Plasmin generation experiment on paper, calibrator curve with plasmin-α2-macroglobulin complex. The settings on record: substrate 300 µM with 8 µM AMC added, constant E 100 nM. The method, then: Stock solutions: SC-FII, prepared in house 1µM; Plasmin-α2macroglobulin complex, prepared in house 1 µM; rec Human recombinant tissue factor (TF) (Innovin; Siemens) 6µM. Phospholipids (PS:PC:PE, 2:6:2) prepared in house 1 mM, Human recombinant tissue plasminogen activator (tPA), (Alteplase Boehringer Ingelheim) 36 klU, Final concentrations used: SC-FII, 100 nM, Plasmin-α2macroglobulin 100 nM: tPA 300 IU. Substrate 300 µM,
To 40 µL of plasma was added 20 µL of the substrate solution (1,35 mM in BSA 60 buffer) so as to obtain a concentration of 450 µM.
To 40 µL of this mixture were added 20 µL of the activation mixture containing the indicated concentration of Ca^++, TF, PI, tPA in BSA 5 buffer. 5 µL of this of this solution was transferred to three 6 mm diameter paper rounds at the (flat) bottom of a 96-well plate. […] The plate was read in a Fluoroscan Ascent fluorometer at 37°C. Samples were measured every 10s at 390-460 nm for 50 minutes.
A plasmin generation experiment was carried out as described in the methods section with Boc-Glu-Lys-Lys-AMC (300 µM) as a substrate to which 8 µM AMC was added. […] We simultaneously recorded a fluorescence curve from plasmin-α2-macroglobulin complex, equivalent to 100 nM plasmin. From this curve, run to completion we found Fmax to be 1778 AU, whereas F0 as measured during the lag-times, was 49,2 AUs.

Data set [2] has as its target T2, thrombin (Homo sapiens, UniProt P00734).
T2 construct: from tissue; host or cells: plasma
Kind of data set: Standard thrombin generation experiment in plasma, ratio method (kinetic constants of substrate conversion). To be noted: substrate at 108 and 416 µM with 1 µM AMC added, 5 pM tissue factor, 37°C. The method, then: Plasma in solution: The TG experiments in the examples are variations on the standard experiment in which thrombin generation in plasma is measured in a 96-wells polystyrene microplate (Thermo Electron Corporation, Milford, MA, USA). All wells contained 80 µl plasma and 20 µl of a solution containing 0.5 - 5 pM tissue factor (TF) and 4 µM phospholipids (PL). To calibrator wells, 20 µl of calibrator was added instead so as to obtain the equivalent of 100 nM thrombin activity. Thrombin generation (TG) was initiated by the addition of 20 µl of substrate (standard: Z-Gly-Gly-Arg-AMC, 417 µM) and CaCl2 (16.6 mM).
• A. Addition of 80 µl plasma to each well • B. Addition of 20 µl TF/phospholipids mix or 20 µl calibrator to each well • C. Pre-heating of the plate for 10 min at 37°C • D. Addition of 20 µl FluCa kept at 37°C prior to the addition of the reaction mixture. • E. Immediate kinetic measurement of fluorescence in time (exc 390 nm / em 460 nm)
A standard thrombin generation experiment with 5 pM tissue factor was carried out, using Z-Gly-Gly-Arg-AMC as a substrate at the concentrations 108- and 416 bµM with 1µM of AMC added. Fom the fluorescence data the normalized ratio was calculated as Rt=(Fexp.t-F0)/(Fmax-F0) (dashed lines).

Data set [3] deals with T3, staphylocoagulase-thrombin (Homo sapiens, UniProt P00734).
T3 construct: Antithrombin-resistant thrombin activity can also be obtained reacting prothrombin with the protein staphylocoagulase; made in house
Put plainly: Conversion of a substrate concentration series by staphylocoagulase-thrombin in 1:2 diluted normal plasma on filter paper. An excerpt: Surface fluorescence in plasma and in whole blood has been essentially measured in the same way as published by Ninnivagi and Apitz for whole blood (Ninivaggi M, Apitz-Castro R, Dargaud Y, de Laat B, Hemker HC, Lindhout T. Whole blood thrombin generation monitored with a calibrated automated thrombogram-based assay. Clin.Chem. 2012,58:1252-1259) or in WO2006/117246. Paper discs of 5.5 mm diameter and 180 µm thickness (Whatman 589/1, Whatman GmbH, Dassel, Germany) were placed in flat bottom wells of a 96-wells polystyrene microplate (Thermo Electron Corporation, Milford, MA, USA).
• A. Preparation of paper matrices and placement into a flat-bottom 96 wells plate • B. Addition of the fluorogenic substrate solution to the plasma or to whole blood • C. Pre-heating of the reagents and whole blood for 2 min at 37°C • D. Mixing of the whole blood and the trigger mix or calibrator 1:1 • E. Pipetting 5 µL reaction mix onto the paper matrix • F. Pipetting 40 µL of mineral oil onto the paper matrix • G. Immediate measurement of fluorescence in time (exc 485 nm / em 538 nm)
In 1:2 diluted normal plasma adsorbed on filter paper a concentration series of mPEG-Gly-Pro-Arg-RhoAc (75, 150, 225, 300, 450 and 600 µM) was converted by 100 nM of staphylocoagulase-thrombin and the resulting fluorescence recorded as further described under materials and methods. […]

Where a SMILES comes first, the peptide text is derived from it. The star is where a group is joined. AMC = Cc1cc(=O)oc2cc(N*)ccc12; Boc = CC(C)(C)OC(=O)* A value given as a limit tells only on which side of the number the result lay.

T1 sequence (P00747 581-810 limits assumed): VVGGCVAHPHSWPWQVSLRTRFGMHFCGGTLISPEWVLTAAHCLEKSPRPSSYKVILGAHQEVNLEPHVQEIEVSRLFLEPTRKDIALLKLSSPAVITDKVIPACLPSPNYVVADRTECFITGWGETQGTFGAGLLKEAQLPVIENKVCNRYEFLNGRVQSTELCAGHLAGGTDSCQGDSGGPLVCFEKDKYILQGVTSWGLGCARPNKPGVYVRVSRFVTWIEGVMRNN
T1 sequence (P00747 97-580 limits assumed): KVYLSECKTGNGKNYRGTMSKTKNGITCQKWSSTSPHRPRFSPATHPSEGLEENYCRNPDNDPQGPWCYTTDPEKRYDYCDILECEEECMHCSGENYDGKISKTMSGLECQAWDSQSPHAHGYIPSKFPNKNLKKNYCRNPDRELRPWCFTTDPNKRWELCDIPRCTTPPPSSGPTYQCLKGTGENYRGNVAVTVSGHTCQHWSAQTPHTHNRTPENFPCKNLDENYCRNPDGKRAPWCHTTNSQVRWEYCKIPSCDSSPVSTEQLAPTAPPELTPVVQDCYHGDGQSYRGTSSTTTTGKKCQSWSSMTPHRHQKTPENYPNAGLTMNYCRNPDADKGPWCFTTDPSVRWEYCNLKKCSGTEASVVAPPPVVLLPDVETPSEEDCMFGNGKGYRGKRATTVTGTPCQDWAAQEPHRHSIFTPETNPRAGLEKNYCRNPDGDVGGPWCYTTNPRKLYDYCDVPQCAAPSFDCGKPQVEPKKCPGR
T1 sequence (P01023 24-1474 partner): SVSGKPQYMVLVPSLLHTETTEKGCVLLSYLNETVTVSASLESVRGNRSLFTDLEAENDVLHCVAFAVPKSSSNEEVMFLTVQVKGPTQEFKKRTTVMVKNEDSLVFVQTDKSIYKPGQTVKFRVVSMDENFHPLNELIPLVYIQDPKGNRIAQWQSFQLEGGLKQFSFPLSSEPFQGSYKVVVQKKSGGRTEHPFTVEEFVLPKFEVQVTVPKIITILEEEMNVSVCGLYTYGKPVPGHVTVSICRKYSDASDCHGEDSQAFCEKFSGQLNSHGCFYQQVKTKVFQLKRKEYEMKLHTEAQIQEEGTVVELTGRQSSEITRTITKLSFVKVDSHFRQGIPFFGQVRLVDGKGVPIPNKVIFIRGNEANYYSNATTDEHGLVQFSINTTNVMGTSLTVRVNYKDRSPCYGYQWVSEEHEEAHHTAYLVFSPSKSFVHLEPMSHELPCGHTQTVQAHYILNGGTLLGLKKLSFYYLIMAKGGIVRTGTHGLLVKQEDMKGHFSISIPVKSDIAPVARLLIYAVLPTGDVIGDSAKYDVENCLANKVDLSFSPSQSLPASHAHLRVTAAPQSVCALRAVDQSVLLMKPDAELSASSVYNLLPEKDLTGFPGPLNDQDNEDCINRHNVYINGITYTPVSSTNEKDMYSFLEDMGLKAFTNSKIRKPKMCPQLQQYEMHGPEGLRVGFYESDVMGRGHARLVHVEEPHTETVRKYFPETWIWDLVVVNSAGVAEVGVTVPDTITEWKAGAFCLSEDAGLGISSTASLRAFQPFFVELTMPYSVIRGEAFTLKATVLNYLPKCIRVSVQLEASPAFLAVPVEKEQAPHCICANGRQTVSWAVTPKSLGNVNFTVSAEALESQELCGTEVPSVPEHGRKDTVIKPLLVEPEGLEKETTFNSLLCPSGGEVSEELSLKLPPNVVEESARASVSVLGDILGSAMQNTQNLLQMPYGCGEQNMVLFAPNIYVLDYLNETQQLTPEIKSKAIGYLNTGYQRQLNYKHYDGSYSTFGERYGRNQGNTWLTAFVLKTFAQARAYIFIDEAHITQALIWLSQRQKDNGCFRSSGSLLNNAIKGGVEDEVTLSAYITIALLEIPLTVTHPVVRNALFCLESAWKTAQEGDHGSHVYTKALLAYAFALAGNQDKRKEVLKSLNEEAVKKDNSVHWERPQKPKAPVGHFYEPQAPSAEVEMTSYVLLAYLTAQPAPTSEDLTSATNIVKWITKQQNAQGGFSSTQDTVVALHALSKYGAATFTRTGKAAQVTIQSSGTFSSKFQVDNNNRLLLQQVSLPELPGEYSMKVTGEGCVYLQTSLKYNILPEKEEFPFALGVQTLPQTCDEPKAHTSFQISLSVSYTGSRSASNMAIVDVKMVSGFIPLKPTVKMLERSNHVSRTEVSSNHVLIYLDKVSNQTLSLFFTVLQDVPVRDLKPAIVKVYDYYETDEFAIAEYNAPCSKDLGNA

With `Cc1cc(=O)oc2cc(NC(=O)[C@H](CCCCN)NC(=O)[C@H](CCCCN)NC(=O)[C@H](CCC(=O)O)NC(=O)OC(C)(C)C)ccc12` [Boc-Glu-Lys-Lys-AMC, ButylOxyCarbonyl-Glu-Lys-Lys-AMC] (Boc-Glu-Lys-Lys-{AMC}), in data set [1], the Km/kcat is 8660 nM·min.

As to `Cc1cc(=O)oc2cc(NC(=O)C(CCCNC(=N)N)NC(=O)CNC(=O)CNC(=O)OCc3ccccc3)ccc12` (stereo not drawn) [Z-Gly-Gly-Arg-AMC], in data set [2], the Km was found to be 900 µM and the kcat came to 1.9 s⁻¹.

Take mPEG-Gly-Pro-Arg-RhoAc: the Km/kcat in data set [3] (enzyme concentration 100 nM, any substrate concentration ≤ 600 µM) was 11,36 µM.min. The Km in data set [3] (substrate 75-600 µM, 100 nM staphylocoagulase-thrombin, inferred from reaction velocity proportional to substrate concentration) is over 600 µM.

These data come from EP3363912B1, “SELF-CALIBRATED ASSAY FOR DETERMINING PROTEOLYTIC ENZYME GENERATION, DEDICATED MEANS AND USES THEREOF” (Synapse B.V., priority 2017, dated 2018).
